Measurements from paper PMC5620571, “Pharmacokinetic Analysis of an Oral Multicomponent Joint Dietary Supplement (Phycox®) in Dogs” (Pharmaceutics, 2017).
Entries after “also recorded” stand apart in the source; their conditions may differ. Where a name gives a salt, the structure may show the parent alone. Read-outs that look alike come from different tables or passages of the source.

How the values were obtained:
[1] = Single-dose oral pharmacokinetic study of one Phycox soft chew in dogs (serum, LC-MS/MS, non-compartmental analysis); assay type: in vivo, dog (female Beagle); conditions: for serum concentration of polyphenol (aglycone or glucuronidated metabolite): single PO Phycox soft chew (36.1 μg ±hesperetin, 0.554 μg trans-resveratrol, 2.88 μg ±naringenin), serum 0-24 h; for half-life: po, 450 mg
Text: The animal research protocol used in this study was reviewed and approved by the Institutional Animal Care and Use Committee at Washington State University (protocol #04224-011, approved 21 December 2014). Four commercially available purpose-bred intact female research Beagles from an Association for Assessment and Accreditation of Laboratory Animal Care (AALAC) certified source were used for the study. All dogs were 2 years of age at the onset of the study with a weight of 9.25 ± 0.81 kg (mean ± SD; range 8.4–10.2 kg). Animals were housed in AALAC approved facilities for animal research for 80 days acclimating to their environment prior to the initiation of the study. All dogs were fed a standard canine formulation (Proactive Health™ Adult Minichunks, IAMS, Mason, OH, USA) ration twice daily and housed in a temperature and humidity controlled room; 21 °C and 30%, respectively, while under 12 h light cycle conditions. The dogs underwent daily examinations and weekly body weight assessments. All animals were also given daily enrichment activities before, during, and after the study. At study termination all animals were transferred to an unrelated study. Dogs were fasted 12 h prior to the study but provided free access to water. Each subject was administered a single Phycox® soft chew and a series of blood samples (3 mL) were collected at 0, 1, 2, 4, 6, 8, 12 and 24 h post-dose via saphenous or cephalic vein depending on the temperament of the animals. Animals were fed after 2 h post-dose. Following centrifugation of the blood samples, serum was removed and stored at −80 °C until analyzed. One hundred microliters of serum from each PK sample was placed into a microcentrifuge tube. To all samples, except 0 h, 40 μL of 0.1 μg/mL internal standard stock solution (caffeine) was added along with 1.0 mL of cold acetonitrile (−20 °C) to precipitate proteins. The samples were vortexed and centrifuged at 20,160× g for 5 min. […] The residues were reconstituted with 50 μL of starting mobile phase (0.05% aqueous formic acid), vortexed and centrifuged at 20,160× g for 5 min. The supernatants were transferred to 30 kDa centrifugal filter tubes and centrifuged for 30 min at 9000× g. The filtrate was transferred to HPLC vials and 5 μL were injected into the LC-MS/MS system. The PK serum samples were separated into two sets of microcentrifuge tubes (total and aglycone) with 100 μL of serum in each. To the total samples, 20 μL β-glucuronidase (500 U/mL in 6.8 pH phosphate buffer) was added and incubated for 2 h at 37 °C [28]. To all samples except 0 h, 20 μL of 10 μg/mL internal standard stock solution (±liquiritigenin) was added along with 1.0 mL of cold acetonitrile (−20 °C) to precipitate proteins. […] The residues were reconstituted with 50 μL of mobile phase (50% aqueous methanol with 0.1% formic acid), vortexed and centrifuged at 20,160× g for 5 min. The supernatants were transferred to 30 kDa centrifugal filter tubes and centrifuged for 30 min at 9000× g. The filtrate was transferred to HPLC vials and 5 μL were injected into the LC-MS/MS system. PK samples were analyzed using Phoenix WinNonlin software (ver. 6.3; Certara, St. Louis, MO, USA) to derive the pharmacokinetic parameters for each individual dog and expressed as mean ± SEM. A non-compartmental analysis was used to calculate the PK parameters including area under the curve (AUC0–∞), the peak serum concentration (Cmax), time to reach peak serum concentration (Tmax), the apparent volume of distribution (Vd/F), the elimination half-life (t1/2), and the apparent clearance (CL/F). The elimination rate constant (KE), was estimated by log-linear regression of the serum concentrations. The AUC0–∞ was calculated using the long-linear trapezoidal rule for data from time of dosing to the last measured concentration plus the quotient of the last measured concentration divided by KE/2.303. The concentration time points of the animals were subjected to non-compartmental modeling.

[2] = set-up: method as in PMID 19647388; conditions: Beagle dogs; cited from earlier work
[3] = set-up: method as in PMID 12214321; conditions: cited from earlier work
[4] = Oral pharmacokinetics of glucosamine HCl in Beagle dogs (Adebowale et al.); assay type: in vivo; conditions: longer than in this study (Phycox soft chew, 450 mg)
Protocol: Two previous studies have evaluated the oral pharmacokinetics of glucosamine HCl in Beagle dogs. Adebowale et al. administered 1500–2000 mg of glucosamine HCl to eight dogs and used non-compartmental modeling to derive PK parameters. […] The serum-concentration time curve reported in Adebowale et al. was similar in shape to the curve reported in this study but the half-lives were reported to be between 1.52–2.4 h, which is […] than the half-live reported in this study. […] The method employed by the study utilized a validated HPLC method with a limit of quantification of 1.25 μg/mL and involved pre-column derivatization. The amount of glucosamine administered in the present study was 3.3 to 4.4 less than those administered in the study by Adebowale et al. but the method employed in this study was 250 times more sensitive allowing for detection of much smaller concentrations of glucosamine. Various LC-MS-MS assays are validated in the literature across various fluids and species. […] The second report of glucosamine HCl PK in dogs administered 1000 mg of glucosamine HCl to four male dogs using two commercially available chewable tablet formulations. […] The method employed by the study used a modified HPLC method with a limit of quantification of 0.05 μg/mL (10 fold higher limit of quantitation than the method presented in this study) and involved pre-column derivatization. […]

[5] = set-up: method as in PMID 26205697; conditions: cited from earlier work
[6] = female, Beagle, dog, glucosamine HCl 450 mg in one Phycox soft chew PO, fasted dogs, serum, n = 4, mean ± SEM
[7] = 1000 mg glucosamine HCl, four male dogs, two commercially available chewable tablet formulations

COc1ccc(C2CC(=O)c3c(O)cc(O)cc3O2)cc1O (racemic) [±hesperetin]
serum concentration of polyphenol (aglycone or glucuronidated metabolite) ([1]; dogs, LOQ 5 ng/mL): no compounds were detected at quantifiable concentrations
serum concentration of polyphenol (aglycone or glucuronidated metabolite) ([1]; dogs, LOQ 5 ng/mL, listed as ±Hesperetin): not detected at quantifiable concentrations

N[C@H]1C(O)O[C@H](CO)[C@@H](O)[C@@H]1O (stereo partly drawn) [glucosamine, glucosamine hydrochloride]
absorption of glucosamine co-administered with chitosan compared to glucosamine alone [2]: increased
half-lives ([3]; 1500–2000 mg glucosamine HCl oral, eight Beagle dogs): 1.52 to 2.4 h
detection of glucosamine ([3]; after 4 h post-dose, HPLC, LOQ 1.25 μg/mL): not able to detect
half-life of Adebowale et al. relative to the half-life of this study [4]: 3–5 times
half-life ([1]; female, Beagle, dog, serum, glucosamine HCl 450 mg in one Phycox soft chew PO, dogs, serum, read-out: apparent t1/2): ~35 min
half-life ([1]; female, Beagle, dog, serum, glucosamine HCl 450 mg in one Phycox soft chew PO, fasted dogs, serum, n = 4, mean ± SEM, read-out: t1/2 (converted)): 35 ± 2.04 min
AUC(0-inf) [1, 6]: 20400 ± 2340 ng·h/mL
CL/F [1, 6]: 42.7 mL/min/kg
Cmax [1, 6]: 9690 ± 1140 ng/mL
Tmax [1, 6]: 120 min
Vd/F [1, 6]: 2.1 ± 0.254 L/kg
time post-dose up to which glucosamine was detected in serum ([1]; single PO Phycox soft chew, dogs, samples collected for 24 h, LOQ 5 ng/mL): up to 8 h
Cmax [5, 7]: 1800 to 2600 ng/mL
Tmax [5, 7]: 252 to 300 min
detection of glucosamine ([5]; at 12 h post-dose, HPLC, LOQ 0.05 μg/mL): not able to detect

Oc1ccc(/C=C/c2cc(O)cc(O)c2)cc1 [trans-resveratrol]
serum concentration of polyphenol (aglycone or glucuronidated metabolite) ([1]; dogs, LOQ 5 ng/mL): not detected at quantifiable concentrations; also recorded: no compounds were detected at quantifiable concentrations
